Source: ChEMBL document CHEMBL3885881, “DrugMatrix”

Organism: Rattus norvegicus
Assay: DrugMatrix - Regimen: Daily Repeat
Type: toxicity, organism-based, Sprague-Dawley
Parameters: regimen Daily Repeat, gender Male, age 6-8 weeks
Conditions: in vivo, po, route oral GAVAGE, […]; for ABSOLUTE BASOPHIL / ABSOLUTE EOSINOPHIL / ABSOLUTE LYMPHOCYTE / ABSOLUTE MONOCYTE / ABSOLUTE SEGMENTED NEUTROPHIL / BASOPHIL / EOSINOPHIL / ERYTHROCYTE COUNT / HEMATOCRIT / HEMOGLOBIN / LEUKOCYTE COUNT / LYMPHOCYTE / MEAN CORPUSCULAR HEMOGLOBIN / MEAN CORPUSCULAR HEMOGLOBIN CONCENTRATION / MEAN CORPUSCULAR VOLUME / MONOCYTE / NEUTROPHIL / NUCLEATED RED BLOOD CELLS / PLATELET COUNT: tissue Blood; for ALANINE AMINOTRANSFERASE / ALBUMIN / ALKALINE PHOSPHATASE / ASPARTATE AMINOTRANSFERASE / BLOOD UREA NITROGEN / CARBON DIOXIDE / CHLORIDE / CHOLESTEROL / CREATINE PHOSPHOKINASE / CREATININE / GLUCOSE / LACTATE DEHYDROGENASE / LIPASE / POTASSIUM / SODIUM / TOTAL BILIRUBIN / TOTAL PROTEIN / URIC ACID: tissue Plasma
[1] = 300 mg/kg, 72 h, dose level M1, time 3 day
[2] = 300 mg/kg, 120 h, dose level M1, time 5 day
[3] = 1500 mg/kg, 72 h, dose level High, time 3 day
[4] = 1500 mg/kg, 120 h, dose level High, time 5 day

With `CCc1ccc(CCOc2ccc(CC3SC(=O)NC3=O)cc2)nc1` (stereo not drawn) [PIOGLITAZONE] the “ABSOLUTE BASOPHIL” value [1] was 0 CELLS/uL, the “ABSOLUTE EOSINOPHIL” value [1] was 0 CELLS/uL and the “ABSOLUTE LYMPHOCYTE” value [1] was 15172.67 CELLS/uL. The “ABSOLUTE MONOCYTE” value [1] was 43 CELLS/uL, the “ABSOLUTE SEGMENTED NEUTROPHIL” value [1] was 1184.33 CELLS/uL and the BASOPHIL [1] was 0%. The EOSINOPHIL [1] was 0%, the “ERYTHROCYTE COUNT” value [1] was 4.93 x10E6/uL and the HEMATOCRIT [1] was 32.73%. For the same molecule, the HEMOGLOBIN [1] was 13 G/DL, the “LEUKOCYTE COUNT” value [1] was 16.4 x10E3/uL and the LYMPHOCYTE [1] was 92.33%. For the same molecule, the “MEAN CORPUSCULAR HEMOGLOBIN” value [1] was 26.4 pg, the “MEAN CORPUSCULAR HEMOGLOBIN CONCENTRATION” value [1] was 39.73 G/DL and the “MEAN CORPUSCULAR VOLUME” value [1] was 66.4 fL. For the same molecule, the MONOCYTE [1] was 0.33%, the NEUTROPHIL [1] was 7.33% and the “NUCLEATED RED BLOOD CELLS” value [1] was 0.67 /100WBC. For the same molecule, the “PLATELET COUNT” value [1] was 1282 x10E3/uL, the “ALANINE AMINOTRANSFERASE” value [1] was 81.33 u/L and the ALBUMIN [1] was 4.1 G/DL. For the same molecule, the “ALKALINE PHOSPHATASE” value [1] was 504.67 u/L, the “ASPARTATE AMINOTRANSFERASE” value [1] was 92 u/L and the “BLOOD UREA NITROGEN” value [1] was 13.67 mg/dL. For the same molecule, the “CARBON DIOXIDE” value [1] was 34 mmol/L, the CHLORIDE [1] was 103.33 MEQ/L and the CHOLESTEROL [1] was 58.33 mg/dL. The “CREATINE PHOSPHOKINASE” value [1] was 248.33 u/L, the CREATININE [1] was 0.22 mg/dL and the GLUCOSE [1] was 137 mg/dL. For the same molecule, the “LACTATE DEHYDROGENASE” value [1] was 98 u/L, the LIPASE [1] was 10.67 u/L and the POTASSIUM [1] was 6.5 MEQ/L. For the same molecule, the SODIUM [1] was 143.9 MEQ/L, the “TOTAL BILIRUBIN” value [1] was 0.1 mg/dL and the “TOTAL PROTEIN” value [1] was 5.47 G/DL. The “URIC ACID” value [1] was 1.27 mg/dL, the “ABSOLUTE BASOPHIL” value [2] was 0 CELLS/uL and the “ABSOLUTE EOSINOPHIL” value [2] was 0 CELLS/uL. For the same molecule, the “ABSOLUTE LYMPHOCYTE” value [2] was 12765 CELLS/uL, the “ABSOLUTE MONOCYTE” value [2] was 138.67 CELLS/uL and the “ABSOLUTE SEGMENTED NEUTROPHIL” value [2] was 829.67 CELLS/uL. For the same molecule, the BASOPHIL [2] was 0%, the EOSINOPHIL [2] was 0% and the “ERYTHROCYTE COUNT” value [2] was 4.76 x10E6/uL. The HEMATOCRIT [2] was 31.27%, the HEMOGLOBIN [2] was 12.9 G/DL and the “LEUKOCYTE COUNT” value [2] was 13.73 x10E3/uL. The LYMPHOCYTE [2] was 93%, the “MEAN CORPUSCULAR HEMOGLOBIN” value [2] was 27.17 pg and the “MEAN CORPUSCULAR HEMOGLOBIN CONCENTRATION” value [2] was 41.37 G/DL. For the same molecule, the “MEAN CORPUSCULAR VOLUME” value [2] was 65.73 fL, the MONOCYTE [2] was 1% and the NEUTROPHIL [2] was 6%. The “NUCLEATED RED BLOOD CELLS” value [2] was 0.67 /100WBC, the “PLATELET COUNT” value [2] was 1095.33 x10E3/uL and the “ALANINE AMINOTRANSFERASE” value [2] was 71.67 u/L. For the same molecule, the ALBUMIN [2] was 4.07 G/DL, the “ALKALINE PHOSPHATASE” value [2] was 406.67 u/L and the “ASPARTATE AMINOTRANSFERASE” value [2] was 102.33 u/L. For the same molecule, the “BLOOD UREA NITROGEN” value [2] was 14.33 mg/dL, the “CARBON DIOXIDE” value [2] was 33.33 mmol/L and the CHLORIDE [2] was 101.33 MEQ/L. The CHOLESTEROL [2] was 56.67 mg/dL, the “CREATINE PHOSPHOKINASE” value [2] was 223.67 u/L and the CREATININE [2] was 0.16 mg/dL. The GLUCOSE [2] was 150.33 mg/dL, the “LACTATE DEHYDROGENASE” value [2] was 224.33 u/L and the LIPASE [2] was 10.33 u/L. The POTASSIUM [2] was 5.99 MEQ/L, the SODIUM [2] was 143.9 MEQ/L and the “TOTAL BILIRUBIN” value [2] was 0.1 mg/dL. The “TOTAL PROTEIN” value [2] was 5.73 G/DL, the “URIC ACID” value [2] was 1.43 mg/dL and the “ABSOLUTE BASOPHIL” value [3] was 0 CELLS/uL. For the same molecule, the “ABSOLUTE EOSINOPHIL” value [3] was 0 CELLS/uL, the “ABSOLUTE LYMPHOCYTE” value [3] was 8411 CELLS/uL and the “ABSOLUTE MONOCYTE” value [3] was 92.33 CELLS/uL. For the same molecule, the “ABSOLUTE SEGMENTED NEUTROPHIL” value [3] was 1396.67 CELLS/uL, the BASOPHIL [3] was 0% and the EOSINOPHIL [3] was 0%. The “ERYTHROCYTE COUNT” value [3] was 4.68 x10E6/uL, the HEMATOCRIT [3] was 29.23% and the HEMOGLOBIN [3] was 11.2 G/DL. For the same molecule, the “LEUKOCYTE COUNT” value [3] was 9.9 x10E3/uL, the LYMPHOCYTE [3] was 84.33% and the “MEAN CORPUSCULAR HEMOGLOBIN” value [3] was 23.93 pg. For the same molecule, the “MEAN CORPUSCULAR HEMOGLOBIN CONCENTRATION” value [3] was 38.27 G/DL, the “MEAN CORPUSCULAR VOLUME” value [3] was 62.47 fL and the MONOCYTE [3] was 1%. The NEUTROPHIL [3] was 14.67%, the “NUCLEATED RED BLOOD CELLS” value [3] was 0.33 /100WBC and the “PLATELET COUNT” value [3] was 1023.33 x10E3/uL. For the same molecule, the “ALANINE AMINOTRANSFERASE” value [3] was 85.67 u/L, the ALBUMIN [3] was 3.97 G/DL and the “ALKALINE PHOSPHATASE” value [3] was 537.33 u/L. The “ASPARTATE AMINOTRANSFERASE” value [3] was 97.67 u/L, the “BLOOD UREA NITROGEN” value [3] was 12.33 mg/dL and the “CARBON DIOXIDE” value [3] was 34.67 mmol/L. The CHLORIDE [3] was 101 MEQ/L, the CHOLESTEROL [3] was 67 mg/dL and the “CREATINE PHOSPHOKINASE” value [3] was 311.67 u/L. For the same molecule, the CREATININE [3] was 0.36 mg/dL, the GLUCOSE [3] was 131 mg/dL and the “LACTATE DEHYDROGENASE” value [3] was 114.33 u/L. For the same molecule, the LIPASE [3] was 9.67 u/L, the POTASSIUM [3] was 5.48 MEQ/L and the SODIUM [3] was 145 MEQ/L. For the same molecule, the “TOTAL BILIRUBIN” value [3] was 0.1 mg/dL, the “TOTAL PROTEIN” value [3] was 5.57 G/DL and the “URIC ACID” value [3] was 0.67 mg/dL. The “ABSOLUTE BASOPHIL” value [4] was 0 CELLS/uL, the “ABSOLUTE EOSINOPHIL” value [4] was 36.67 CELLS/uL and the “ABSOLUTE LYMPHOCYTE” value [4] was 8937 CELLS/uL. The “ABSOLUTE MONOCYTE” value [4] was 131.33 CELLS/uL, the “ABSOLUTE SEGMENTED NEUTROPHIL” value [4] was 1128.33 CELLS/uL and the BASOPHIL [4] was 0%. For the same molecule, the EOSINOPHIL [4] was 0.33%, the “ERYTHROCYTE COUNT” value [4] was 4.76 x10E6/uL and the HEMATOCRIT [4] was 30.03%. For the same molecule, the HEMOGLOBIN [4] was 11.5 G/DL, the “LEUKOCYTE COUNT” value [4] was 10.23 x10E3/uL and the LYMPHOCYTE [4] was 87.33%. For the same molecule, the “MEAN CORPUSCULAR HEMOGLOBIN” value [4] was 24.2 pg, the “MEAN CORPUSCULAR HEMOGLOBIN CONCENTRATION” value [4] was 38.3 G/DL and the “MEAN CORPUSCULAR VOLUME” value [4] was 63.17 fL. The MONOCYTE [4] was 1.33%, the NEUTROPHIL [4] was 11% and the “NUCLEATED RED BLOOD CELLS” value [4] was 0 /100WBC. The “PLATELET COUNT” value [4] was 962 x10E3/uL, the “ALANINE AMINOTRANSFERASE” value [4] was 56.33 u/L and the ALBUMIN [4] was 3.93 G/DL. For the same molecule, the “ALKALINE PHOSPHATASE” value [4] was 338.67 u/L, the “ASPARTATE AMINOTRANSFERASE” value [4] was 80 u/L and the “BLOOD UREA NITROGEN” value [4] was 13.67 mg/dL. For the same molecule, the “CARBON DIOXIDE” value [4] was 33.67 mmol/L, the CHLORIDE [4] was 101 MEQ/L and the CHOLESTEROL [4] was 62.67 mg/dL. For the same molecule, the “CREATINE PHOSPHOKINASE” value [4] was 366 u/L, the CREATININE [4] was 0.36 mg/dL and the GLUCOSE [4] was 140.67 mg/dL. For the same molecule, the “LACTATE DEHYDROGENASE” value [4] was 107.33 u/L, the LIPASE [4] was 8.67 u/L and the POTASSIUM [4] was 5.6 MEQ/L. For the same molecule, the SODIUM [4] was 144.53 MEQ/L, the “TOTAL BILIRUBIN” value [4] was 0.17 mg/dL and the “TOTAL PROTEIN” value [4] was 5.47 G/DL. The “URIC ACID” value [4] was 0.63 mg/dL.
